Source: US9228202B2, “Intracellular viral vector delivery method employing iron ion/viral vector composite” (POSTECH ACADEMY-INDUSTRY FOUNDATION, priority 2009, dated 2016)

What was measured:
rBMSC [1] = experiment: Cytotoxicity assay of ferric ions (CCK8 cell viability); format: cell-based, rat
Experimental: A cytotoxicity assay was done with rBMSC in order to evaluate the safety of ferric ions alone or the ferric ion/adenoviral vector composite to the body. rBMSC was incubated for 2 hours with 0.2 μM˜50 mM ferric ions alone or in combination with 100 MOI of an adenoviral vector. On the next day, cell viability was determined using a CCK8 kit (DOJINDO, Japan).

rBMSC [2] = experiment: Comparison of intracellular delivery of adenoviral vector among ferrous, ferric and calcium ions; format: cell-based, rat; details: rAd/EGFP 30 MOI with 50 μM cation
Experimental: To examine whether ferric irons (Fe^3+) improve the delivery of […] into cells, the adenoviral vector rAd/EGFP, which carries a GFP (green fluorescent protein) gene, was employed. First, 30 or 100 MOI of rAd/EGFP was mixed and incubated with 2 μM, 10 μM or 50 μM ferric ions for 30 min at room temperature, followed by infection for 2 hours into rat bone marrow mesenchymal stem cells (rBMSC), the human cervical cancer cell line HeLa, and the human amelanotic melanoma cell line (A375), all free from the expression of CAR, a primary receptor for adenoviruses. Then, the viral mixture was removed and the medium was changed with DMEM before incubation for two days in a CO2 incubator (CO2 water Jacketed Incubator, Form a Scientific™). The cells were detached by trypsinization and analyzed for intracellular GFP level using FACS (fluorescence activated cell sorter, BD).
Ferrous and ferric ions were compared with calcium ions, known to improve the gene delivery of adenoviral vectors, for efficacy of gene delivery. In this regard, rBMSC was treated with rAd/EGFP (30 MOI) and 50 μM cations (Fe^2+, Fe^3+, Ca^2+) in the same manner as in Example 1, and the efficacy of gene delivery was compared among the cations.

Compound	50% cell viability concentration relative to the iron ion concentration used for gene delivery (10~50 μM) (rBMSC [1]) [fold]	iron ion concentration at which cytotoxicity starts (rBMSC [1]; 2 h incubation, CCK8 next day) [mM]	cell viability (rBMSC [1]; iron ion concentration of 50 mM, CCK8)	gene delivery efficiency relative to calcium ions (rBMSC [2]) [times]
[Fe+3] [ferric ions]	1000	10	decreased to zero	60
[Fe+2] [ferrous ions]				60
